Experimental findings from ChEMBL document CHEMBL1150235, “Parnapimarol and nepetaparnone from Nepeta parnassica” (2008) are described below.

Activity calls are given as the source filed them. No cut-off for these calls is given here.

The test system of one assay is Leptothorax. The assay is described as follows: Insecticidal activity against Leptothorax sp. assessed as number of dead ants at 0.5 mg after 6 to 24 hrs relative to control. Format: functional.
The next assay deals with Culex pipiens molestus. Briefly: Insecticidal activity against Culex pipiens molestus larvae at 10 to 50 mg/L after 6 to 24 hrs. In kind it is functional, organism-based.

As to `CC1=C2CC[C@@H](C)[C@@]23C(=O)O[C@H]1[C@@]12C(=O)O[C@H]3C(C)=C1CC[C@@H]2C` [NEPETAPARNONE], in the assay on Leptothorax, the Activity came to 55%. In the assay with Culex pipiens molestus, the result was inactive.

Take `CC1=C2CC[C@H](C)[C@@]23C(=O)O[C@H]1[C@@]12C(=O)O[C@H]3C(C)=C1CC[C@@H]2C` [NEPETANUDONE]: in the assay on Leptothorax, the Activity is 45%. Moreover, in the assay with Culex pipiens molestus, the result was inactive.

Take `C=C[C@]1(C)CCC2=C(CC[C@H]3[C@](C)(COC(=O)C(C)CC)CC[C@H](O)[C@]23C)[C@@H]1OC(C)=O` (stereo partly specified) [PARNAPIMAROL]: the Activity in the assay on Leptothorax was found to be 31%. Further, the outcome in the assay on Culex pipiens molestus was inactive.
